Experiments:
Experiment in all cases: Bliss excess, mean over the matrix (fraction); higher = more synergy
[1] = system: ALL-PO (B-Lymphoblastic Leukemia)
In short: (§1)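 After 24 hours at 37°C and 5% CO2 in 1536-well plates, cells in DMEM/F12 or RPMI plus 10% FBS received two-drug dose matrices for 72 hours. Viability came from CellTiter-Glo 2.0 luminescence and was scaled as inhibition, anchored at 0 by vehicle wells and at 1 by blank wells. Combination Emax is taken as the second-highest inhibition in the matrix, and Bliss excess as the observed combination effect less EA + EB − EA·EB, with EA and EB the single-agent effects.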

BE2-M17 (Neuroblastoma) = system: BE2-M17 (Neuroblastoma)
In short: as §1

[2] = system: CAL-33 (Oral Cavity Carcinoma)
In short: as §1

CAL-72 (Osteosarcoma) = system: CAL-72 (Osteosarcoma)
In short: as §1

[3] = system: Detroit562 (Head and Neck Carcinoma)
In short: as §1

[4] = system: ESS-1 (Other Solid Carcinomas)
In short: as §1

EW-11 (Ewing's Sarcoma) = system: EW-11 (Ewing's Sarcoma)
In short: as §1

[5] = system: HH (T-Cell Non-Hodgkin's Lymphoma)
In short: as §1

[6] = system: HuH-7 (Hepatocellular Carcinoma)
In short: as §1

[7] = system: KYAE-1 (Esophageal Adenocarcinoma)
In short: as §1

LOXIMVI (Melanoma) = system: LOXIMVI (Melanoma)
In short: as §1

[8] = system: LS-123 (Colorectal Carcinoma)
In short: as §1

[9] = system: NCI-H1568 (Lung Adenocarcinoma)
In short: as §1

NCI-H2722 (Mesothelioma) = system: NCI-H2722 (Mesothelioma)
In short: as §1

[10] = system: NCI-H524 (Small Cell Lung Carcinoma)
In short: as §1

[11] = system: NUGC-4 (Gastric Carcinoma)
In short: as §1

[12] = system: SAS (Oral Cavity Carcinoma)
In short: as §1

[13] = system: SNU-16 (Gastric Carcinoma)
In short: as §1

[14] = system: SW1710 (Bladder Carcinoma)
In short: as §1

[15] = system: YAPC (Pancreatic Carcinoma)
In short: as §1

Cc1cc2ncnn2cc1Nc1ncc2c(n1)n(C1CCOCC1)c(=O)n2C [AZD7648] + C=CCn1c(=O)c2cnc(Nc3ccc(N4CCN(C)CC4)cc3)nc2n1-c1cccc(C(C)(C)O)n1 [AZD1775] (first compound max 10 µM, partner max 1 µM)
Bliss excess [1]: 0.0488 | Bliss excess (BE2-M17 (Neuroblastoma)): -0.0837 | Bliss excess [2]: 0.0238 | Bliss excess (CAL-72 (Osteosarcoma)): -0.0194 | Bliss excess [3]: 0.0575 | Bliss excess [4]: 0.0525 | Bliss excess (EW-11 (Ewing's Sarcoma)): -0.029 | Bliss excess [5]: -0.0461 | Bliss excess [6]: 0.0039 | Bliss excess [7]: -0.048 | Bliss excess (LOXIMVI (Melanoma)): -0.0123 | Bliss excess [8]: -0.079 | Bliss excess [9]: -0.0763 | Bliss excess (NCI-H2722 (Mesothelioma)): 0.0033 | Bliss excess [10]: -0.0254 | Bliss excess [11]: -0.0417 | Bliss excess [12]: 0.0079 | Bliss excess [13]: -0.0345 | Bliss excess [14]: 0.0692 | Bliss excess [15]: 0.0325

Cc1cc2ncnn2cc1Nc1ncc2c(n1)n(C1CCOCC1)c(=O)n2C [AZD7648] + CCN(CCO)CCCOc1ccc2c(Nc3cc(CC(=O)Nc4cccc(F)c4)[nH]n3)ncnc2c1 [AZD2811] (first compound max 10 µM, 7x7, partner max 1 µM)
Bliss excess [1]: 0.0236 | Bliss excess (BE2-M17 (Neuroblastoma)): 0.01 | Bliss excess [2]: -0.0089 | Bliss excess (CAL-72 (Osteosarcoma)): 0.0448 | Bliss excess [3]: -0.0142 | Bliss excess [4]: 0.128 | Bliss excess (EW-11 (Ewing's Sarcoma)): -0.0298 | Bliss excess [5]: -0.0598 | Bliss excess [6]: -0.0065 | Bliss excess [7]: -0.002 | Bliss excess (LOXIMVI (Melanoma)): -0.0125 | Bliss excess [8]: -0.0172 | Bliss excess [9]: -0.0172 | Bliss excess (NCI-H2722 (Mesothelioma)): 0.0323 | Bliss excess [10]: -0.0043 | Bliss excess [11]: -0.0257 | Bliss excess [12]: 0.0058 | Bliss excess [13]: 0.0793 | Bliss excess [14]: 0.0167 | Bliss excess [15]: 0.0032

Cc1cc2ncnn2cc1Nc1ncc2c(n1)n(C1CCOCC1)c(=O)n2C [AZD7648] + CN(C)CCCOc1ccc(-c2ccc3ncc4c(c3c2)n(C2CCOCC2)c(=O)n4C)cn1 [AZD0156] (first compound max 10 µM, 7x7, partner max 1 µM)
Bliss excess [1]: 0.0524 | Bliss excess (BE2-M17 (Neuroblastoma)): -0.0026 | Bliss excess [2]: 0.0227 | Bliss excess (CAL-72 (Osteosarcoma)): -0.0908 | Bliss excess [3]: 0.0129 | Bliss excess [4]: 0.0364 | Bliss excess (EW-11 (Ewing's Sarcoma)): -0.0549 | Bliss excess [5]: -0.0338 | Bliss excess [6]: -0.006 | Bliss excess [7]: 0.0007 | Bliss excess (LOXIMVI (Melanoma)): -0.0141 | Bliss excess [8]: 0.0338 | Bliss excess [9]: -0.0213 | Bliss excess (NCI-H2722 (Mesothelioma)): -0.0023 | Bliss excess [10]: 0.0254 | Bliss excess [11]: 0.0034 | Bliss excess [12]: 0.0623 | Bliss excess [13]: 0.0214 | Bliss excess [14]: -0.01 | Bliss excess [15]: -0.0126

Cc1cc2ncnn2cc1Nc1ncc2c(n1)n(C1CCOCC1)c(=O)n2C [AZD7648] + C[C@@H]1COCCN1C2=NC(=NC(=C2)C3(CC3)[S@](=N)(=O)C)C4=C5C=CNC5=NC=C4 [AZD6738] (first compound max 10 µM, 7x7, partner max 10 µM)
Bliss excess [1]: 0.0381 | Bliss excess (BE2-M17 (Neuroblastoma)): -0.0073 | Bliss excess [2]: 0.0013 | Bliss excess (CAL-72 (Osteosarcoma)): 0.0292 | Bliss excess [3]: 0.0217 | Bliss excess [4]: -0.0161 | Bliss excess (EW-11 (Ewing's Sarcoma)): 0.0104 | Bliss excess [5]: 0.0284 | Bliss excess [6]: 0.0151 | Bliss excess [7]: 0.0399 | Bliss excess (LOXIMVI (Melanoma)): -0.0019 | Bliss excess [8]: -0.0021 | Bliss excess [9]: 0.0383 | Bliss excess (NCI-H2722 (Mesothelioma)): -0.0163 | Bliss excess [10]: 0.035 | Bliss excess [11]: -0.0673 | Bliss excess [12]: 0.0211 | Bliss excess [13]: -0.009 | Bliss excess [14]: 0.0067 | Bliss excess [15]: 0.0058

Cc1cc2ncnn2cc1Nc1ncc2c(n1)n(C1CCOCC1)c(=O)n2C [AZD7648] + O=C(c1cc(Cc2n[nH]c(=O)c3ccccc23)ccc1F)N1CCN(C(=O)C2CC2)CC1 [Olaparib] (first compound max 10 µM, 7x7, partner max 10 µM)
Bliss excess [1]: -0.0202 | Bliss excess (BE2-M17 (Neuroblastoma)): 0.0754 | Bliss excess [2]: -0.0237 | Bliss excess (CAL-72 (Osteosarcoma)): -0.0093 | Bliss excess [3]: -0.0108 | Bliss excess [4]: -0.0721 | Bliss excess (EW-11 (Ewing's Sarcoma)): -0.0826 | Bliss excess [5]: -0.0269 | Bliss excess [6]: -0.0389 | Bliss excess [7]: -0.0362 | Bliss excess (LOXIMVI (Melanoma)): -0.0577 | Bliss excess [8]: -0.0221 | Bliss excess [9]: -0.0307 | Bliss excess (NCI-H2722 (Mesothelioma)): -0.0445 | Bliss excess [10]: -0.0698 | Bliss excess [11]: -0.049 | Bliss excess [12]: -0.0245 | Bliss excess [13]: -0.0301 | Bliss excess [14]: -0.0377 | Bliss excess [15]: -0.0521

Cc1nc(Nc2ncc(C(=O)Nc3c(C)cccc3Cl)s2)cc(N2CCN(CCO)CC2)n1 [Dasatinib] + CC(=O)Nc1cccc(-n2c(=O)n(C3CC3)c(=O)c3c(Nc4ccc(I)cc4F)n(C)c(=O)c(C)c32)c1 [Trametinib] (first compound max 2 µM, 7x7, partner max 1 µM)
Bliss excess [1]: 0.0238 | Bliss excess (BE2-M17 (Neuroblastoma)): -0.0087 | Bliss excess [2]: -0.0189 | Bliss excess (CAL-72 (Osteosarcoma)): -0.0409 | Bliss excess [3]: -0.0007 | Bliss excess [4]: -0.0417 | Bliss excess (EW-11 (Ewing's Sarcoma)): -0.0404 | Bliss excess [5]: -0.0188 | Bliss excess [6]: 0.0586 | Bliss excess [7]: -0.0114 | Bliss excess (LOXIMVI (Melanoma)): 0.0175 | Bliss excess [8]: 0.0891 | Bliss excess [9]: 0.118 | Bliss excess (NCI-H2722 (Mesothelioma)): -0.0321 | Bliss excess [10]: -0.0362 | Bliss excess [11]: 0.007 | Bliss excess [12]: 0.0083 | Bliss excess [13]: -0.0261 | Bliss excess [14]: -0.0546 | Bliss excess [15]: 0.0605

COc1cc2ncnc(Nc3ccc(F)c(Cl)c3)c2cc1OCCCN1CCOCC1 [Gefitinib] + CC(C)n1c(=O)n(C)c2cnc3cc(F)c(-c4ccc(OCCCN5CCCCC5)nc4)cc3c21 [AZD1390] (first compound max 10 µM, 7x7, partner max 0.3 µM)
Bliss excess [1]: -0.0558 | Bliss excess (BE2-M17 (Neuroblastoma)): -0.049 | Bliss excess [2]: -0.0366 | Bliss excess (CAL-72 (Osteosarcoma)): -0.0555 | Bliss excess [3]: -0.0476 | Bliss excess [4]: -0.0518 | Bliss excess (EW-11 (Ewing's Sarcoma)): -0.0563 | Bliss excess [5]: -0.0263 | Bliss excess [6]: -0.042 | Bliss excess [7]: -0.0421 | Bliss excess (LOXIMVI (Melanoma)): -0.0384 | Bliss excess [8]: -0.0622 | Bliss excess [9]: -0.0412 | Bliss excess (NCI-H2722 (Mesothelioma)): -0.0662 | Bliss excess [10]: -0.0431 | Bliss excess [11]: -0.0491 | Bliss excess [12]: -0.0454 | Bliss excess [13]: -0.0183 | Bliss excess [14]: -0.041 | Bliss excess [15]: -0.0233

COc1cc2c(cc1OCCCCCOc1cc3c(cc1OC)C(=O)N1C=C(C)C[C@H]1C=N3)N=C[C@@H]1CC(C)=CN1C2=O [SG3199] + O=C(c1cc(Cc2n[nH]c(=O)c3ccccc23)ccc1F)N1CCN(C(=O)C2CC2)CC1 [Olaparib] (first compound max 0.001 µM, 7x7, partner max 10 µM)
Bliss excess [1]: -0.0276 | Bliss excess (BE2-M17 (Neuroblastoma)): 0.0474 | Bliss excess [2]: -0.0198 | Bliss excess (CAL-72 (Osteosarcoma)): -0.0565 | Bliss excess [3]: -0.0252 | Bliss excess [4]: -0.0118 | Bliss excess (EW-11 (Ewing's Sarcoma)): -0.051 | Bliss excess [5]: -0.0344 | Bliss excess [6]: -0.0363 | Bliss excess [7]: -0.0195 | Bliss excess (LOXIMVI (Melanoma)): -0.0599 | Bliss excess [8]: -0.0211 | Bliss excess [9]: -0.077 | Bliss excess (NCI-H2722 (Mesothelioma)): -0.0459 | Bliss excess [10]: -0.0181 | Bliss excess [11]: -0.0134 | Bliss excess [12]: -0.03 | Bliss excess [13]: -0.0598 | Bliss excess [14]: -0.0334 | Bliss excess [15]: -0.0534

C[C@@H](c1ccc2nccn2c1)n1nnc2ncc(-c3cnn(C)c3)nc21 [Savolitinib] + CC1(C)CCC(CN2CCN(c3ccc(C(=O)NS(=O)(=O)c4ccc(NCC5CCOCC5)c([N+](=O)[O-])c4)c(Oc4cnc5[nH]ccc5c4)c3)CC2)=C(c2ccc(Cl)cc2)C1 [Venetoclax] (first compound max 1 µM, 7x7, partner max 1 µM)
Bliss excess [1]: 0.035 | Bliss excess (BE2-M17 (Neuroblastoma)): -0.0656 | Bliss excess [2]: -0.0211 | Bliss excess (CAL-72 (Osteosarcoma)): -0.02 | Bliss excess [3]: -0.0322 | Bliss excess [4]: -0.0241 | Bliss excess (EW-11 (Ewing's Sarcoma)): -0.0096 | Bliss excess [5]: -0.0712 | Bliss excess [6]: -0.0573 | Bliss excess [7]: -0.014 | Bliss excess (LOXIMVI (Melanoma)): -0.0355 | Bliss excess [8]: -0.0794 | Bliss excess [9]: -0.0575 | Bliss excess (NCI-H2722 (Mesothelioma)): -0.0617 | Bliss excess [10]: -0.0066 | Bliss excess [11]: -0.0817 | Bliss excess [12]: -0.0388 | Bliss excess [13]: -0.0188 | Bliss excess [14]: -0.0561 | Bliss excess [15]: -0.0232

C[C@@H](c1ccc2nccn2c1)n1nnc2ncc(-c3cnn(C)c3)nc21 [Savolitinib] + Cc1c2c(nn1C)CSCc1cc(n(C)n1)CSc1cc(c3ccccc3c1)OCCCc1c(C(=O)O)n(C)c3c-2c(Cl)ccc13 [AZD5991] (first compound max 1 µM, 7x7, partner max 1 µM)
Bliss excess [1]: -0.0254 | Bliss excess (BE2-M17 (Neuroblastoma)): -0.0285 | Bliss excess [2]: -0.0423 | Bliss excess (CAL-72 (Osteosarcoma)): -0.0077 | Bliss excess [3]: 0.0497 | Bliss excess [4]: -0.0432 | Bliss excess (EW-11 (Ewing's Sarcoma)): 0.0361 | Bliss excess [5]: -0.0258 | Bliss excess [6]: -0.0276 | Bliss excess [7]: 0.0163 | Bliss excess (LOXIMVI (Melanoma)): -0.0096 | Bliss excess [8]: -0.0234 | Bliss excess [9]: -0.05 | Bliss excess (NCI-H2722 (Mesothelioma)): -0.0088 | Bliss excess [10]: -0.0115 | Bliss excess [11]: -0.0348 | Bliss excess [12]: -0.0341 | Bliss excess [13]: -0.047 | Bliss excess [14]: -0.0351 | Bliss excess [15]: -0.0425

Reference: the supplement of paper PMC11061612
